One series deals with T1, hLDHA (Homo sapiens, UniProt P00338).
T1 construct: purchased Abcam
In words: hLDHA enzymatic assay (kinetic fluorometric, pyruvate substrate, NADH co-factor). The class given is biochemical. The conditions noted are these: hLDHA, 1 mM pyruvate, 151 µM β-NADH, compounds 0.048–100 µM, n = 3. As for the experimental part:
The inhibitory activity of the pyrimidine-quinolone hybrids 10, 15, 19, and 24–31(a–c) against the hLDHA enzyme was measured by a kinetic spectrofluorometric assay.
hLDHA activity was determined throughout a fluorometric method with pyruvate as substrate and NADH co-factor, as previously reported and modified as described here: in each well, the final volume was set to 200 µL, and the final concentrations were 100 mM potassium phosphate buffer, 0.041 units/mL hLDHA (95%, specific activity >300 units/mg and concentration of 0.5 mg/mL, Abcam, Cambridge, United Kingdom), 151 µM β-NADH, 1 mM pyruvate (saturated conditions), and DMSO solutions (2%, v/v) of pure compounds at concentrations in the range of 0.048–100 µM. The reaction was initiated by the addition of pyruvate, and the NADH concentration decrease was measured for 10 min in a TECAN Infinite 200 Pro M Plex fluorescence plate reader at 28 °C, with excitation at 340 nm and emission at 460 nm. The percentage of activity for each measure was calculated by comparison between the maximum slope of each compound concentration and the maximum slope when no inhibitor (DMSO only) was in the well (100% enzymatic activity). The compound 3-[[3[(cyclopropylamino)sulfonyl]-7-(2,4-dimethoxy-5-pyrimidinyl)-4-quinolinyl]amino]-5-(3,5-difluorophenoxy)benzoic acid (GSK 2837808 A, Tocris, Minneapolis, MN, USA) was used as a positive control.
The measurements were obtained thrice, and data were expressed as the mean ± SD of n = 3 replicates for IC50 values. As-obtained data were later plotted in GraphPad Prism version 5.00 for Windows (GraphPad Software, La Jolla, CA, USA). Nonlinear regression analysis was chosen for dose response curve, representing the logarithm of inhibitor concentration vs. normalized enzymatic activity in order to calculate IC50 values.

Series [1] is described as follows: Solubility as observed on handling. The class given is physicochemical.

Molecules are shown by their SMILES. Entries after “also recorded” stand apart in the source; their conditions may differ.

A word on the IC50: it is the concentration needed to halve the response being measured. The low end stands for greater potency, the high end for weaker potency.

In turn, `O=c1[nH]c2ccccc2cc1COc1ccc(Nc2nccc(-c3ccc(Cl)cc3)n2)cc1` [Compound 15, 3-((4-((4-(4-Chlorophenyl)pyrimidin-2-yl)amino)phenoxy)methyl)quinolin-2(1H)-one] had an IC50 at hLDHA of more than 100 µM. Further, the “solubility (in words)” value in series [1] is given as “highly insoluble; also recorded: problems related with solubility”.

The values are drawn from publication PMC9322123, “Design and Synthesis of New Pyrimidine-Quinolone Hybrids as Novel hLDHA Inhibitors” (Pharmaceuticals, 2022).
